Calls of active or inactive are those of the source. No rule for the calls is given here.

In the experiment the target is Core antigen (Hepatitis B virus) (UniProt Q03732). Nature of the experiment: Inhibition of Hepatitis B virus capsid formation at 100 uM treated during cell-free wild type HBV Cp synthesis using wheat germ lysates and HBV Cp RNA by Native capsid assay based western blot analysis. Format: subcellular. For orientation: A western blot detects proteins with antibodies after separation by electrophoresis.
Sequence of Core antigen (Hepatitis B virus) (Q03732 as listed by the source): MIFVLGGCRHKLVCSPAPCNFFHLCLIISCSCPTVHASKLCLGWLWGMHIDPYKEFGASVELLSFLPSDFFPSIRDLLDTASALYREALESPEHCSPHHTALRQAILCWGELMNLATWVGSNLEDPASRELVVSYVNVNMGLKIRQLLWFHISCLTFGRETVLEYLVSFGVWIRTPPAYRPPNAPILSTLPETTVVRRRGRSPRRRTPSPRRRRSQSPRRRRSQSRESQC
With `CC(=O)N[C@@H](C)C(=O)N[C@@H](CO)C(=O)N[C@H](C(=O)N[C@@H](CCC(=O)O)C(=O)N[C@@H](CC(C)C)C(=O)N[C@@H](CC(C)C)C(=O)N[C@@H](CO)C(=O)N[C@@H](Cc1ccccc1)C(=O)N[C@@H](CC(C)C)C(=O)N1CCC[C@H]1C(=O)N[C@@H](CO)C(=O)N[C@@H](CC(=O)O)C(=O)N[C@@H](Cc1ccccc1)C(=O)N[C@@H](Cc1ccccc1)C(=O)N1CCC[C@H]1C(N)=O)C(C)C`, the inhibition result was “inactive”. In the case of `CC(=O)N[C@@H](Cc1ccc(O)cc1)C(=O)N[C@@H](CCCCN)C(=O)N[C@@H](CCC(=O)O)C(=O)N[C@@H](Cc1ccccc1)C(=O)NCC(=O)N[C@@H](C)C(=O)N[C@@H](CO)C(=O)N[C@H](C(=O)N[C@@H](CCC(=O)O)C(=O)N[C@@H](CC(C)C)C(=O)N[C@@H](CC(C)C)C(=O)N[C@@H](CO)C(=O)N[C@@H](Cc1ccccc1)C(=O)N[C@@H](CC(C)C)C(=O)N1CCC[C@H]1C(N)=O)C(C)C` it was “inactive”. `CC(C)C[C@H](NC(=O)[C@@H](NC(=O)[C@@H](N)CO)[C@@H](C)O)C(=O)N1CCC[C@H]1C(=O)N[C@@H](CCC(=O)O)C(=O)N[C@H](C(=O)N[C@H](C(=O)N[C@H](C(=O)N[C@H](C(=O)N[C@@H](CCCNC(=N)N)C(=O)N[C@@H](CCCNC(=N)N)C(=O)N[C@@H](CCCNC(=N)N)C(=O)NCC(=O)N[C@@H](CCCNC(=N)N)C(=O)N[C@@H](CO)C(N)=O)C(C)C)C(C)C)[C@@H](C)O)[C@@H](C)O`: the inhibition result is “inactive”. Turning to `CC(C)C[C@H](NC(=O)[C@H](CC(N)=O)NC(=O)[C@H](CO)NC(=O)CNC(=O)[C@@H](NC(=O)[C@@H](N)Cc1c[nH]c2ccccc12)C(C)C)C(=O)N[C@@H](CCC(=O)O)C(=O)N[C@@H](CC(=O)O)C(=O)N1CCC[C@H]1C(=O)N[C@@H](C)C(=O)N[C@@H](CO)C(=O)N[C@@H](CCCNC(=N)N)C(=O)N[C@@H](CCC(=O)O)C(=O)N[C@@H](CC(C)C)C(=O)N[C@H](C(N)=O)C(C)C`, the inhibition entry is “inactive”. With `CC(C)C[C@H](NC(=O)[C@H](CCC(=O)O)NC(=O)[C@H](CCCNC(=N)N)NC(=O)[C@H](CO)NC(=O)[C@H](C)NC(=O)[C@@H]1CCCN1C(=O)[C@H](CC(=O)O)NC(=O)[C@H](CCC(=O)O)NC(=O)[C@@H](N)CC(C)C)C(=O)N[C@H](C(=O)N[C@H](C(=O)N[C@@H](CO)C(=O)N[C@@H](Cc1ccc(O)cc1)C(=O)N[C@H](C(=O)N[C@@H](CC(N)=O)C(N)=O)C(C)C)C(C)C)C(C)C`, the inhibition entry was “inactive”. As for `CC[C@H](C)[C@H](NC(=O)[C@@H]1CCCN1C(=O)[C@H](C)NC(=O)[C@@H](N)CC(N)=O)C(=O)N[C@@H](CC(C)C)C(=O)N[C@@H](CO)C(=O)N[C@H](C(=O)N[C@@H](CC(C)C)C(=O)N1CCC[C@H]1C(=O)N[C@@H](CCC(=O)O)C(=O)N[C@H](C(=O)N[C@H](C(=O)N[C@H](C(=O)N[C@H](C(=O)N[C@@H](CCCNC(=N)N)C(N)=O)C(C)C)C(C)C)[C@@H](C)O)[C@@H](C)O)[C@@H](C)O`, the inhibition entry was “inactive”. The entry for `CC[C@H](C)[C@H](NC(=O)[C@H](C)NC(=O)[C@H](CCC(N)=O)NC(=O)[C@@H]1CCCN1C(C)=O)C(=O)N[C@@H](CC(C)C)C(=O)N[C@@H](CS)C(=O)N[C@@H](Cc1c[nH]c2ccccc12)C(=O)NCC(=O)N[C@@H](CCC(=O)O)C(=O)N[C@@H](CC(C)C)C(=O)N[C@@H](CCSC)C(=O)N[C@@H](CC(N)=O)C(=O)N[C@@H](CC(C)C)C(=O)N[C@@H](C)C(=O)N[C@H](C(N)=O)[C@@H](C)O` is “inactive”; for `CC[C@H](C)[C@H](NC(=O)[C@H](CC(=O)O)NC(=O)[C@H](CCSC)NC(C)=O)C(=O)N[C@@H](CC(=O)O)C(=O)N1CCC[C@H]1C(=O)N[C@@H](Cc1ccc(O)cc1)C(=O)N[C@@H](CCCCN)C(=O)N[C@@H](CCC(=O)O)C(=O)N[C@@H](Cc1ccccc1)C(=O)NCC(=O)N[C@@H](C)C(=O)N[C@@H](CO)C(=O)N[C@H](C(=O)N[C@@H](CCC(=O)O)C(=O)N[C@@H](CC(C)C)C(N)=O)C(C)C` it is “inactive”; for `CC[C@H](C)[C@H](NC(=O)[C@H](CO)NC(=O)[C@@H]1CCCN1C(=O)[C@H](Cc1ccccc1)NC(=O)[C@H](Cc1ccccc1)NC(=O)[C@H](CC(=O)O)NC(=O)[C@H](CO)NC(=O)[C@@H]1CCCN1C(=O)[C@H](CC(C)C)NC(=O)[C@H](Cc1ccccc1)NC(=O)[C@H](CO)NC(=O)[C@H](CC(C)C)NC(C)=O)C(=O)N[C@@H](CCCNC(=N)N)C(=O)N[C@@H](CC(=O)O)C(=O)N[C@@H](CC(C)C)C(N)=O` it is “inactive”. For the compound `CC[C@H](C)[C@H](NC(=O)[C@H](CO)NC(=O)[C@@H]1CCCN1C(=O)[C@H](Cc1ccccc1)NC(=O)[C@H](Cc1ccccc1)NC(=O)[C@H](CC(=O)O)NC(=O)[C@H](CO)NC(C)=O)C(=O)N[C@@H](CCCNC(=N)N)C(=O)N[C@@H](CC(=O)O)C(=O)N[C@@H](CC(C)C)C(=O)N[C@@H](CC(C)C)C(=O)N[C@@H](CC(=O)O)C(=O)N[C@H](C(=O)N[C@@H](C)C(=O)N[C@@H](CO)C(N)=O)[C@@H](C)O`, the inhibition entry is “inactive”. For the compound `CC[C@H](C)[C@H](NC(=O)[C@H](CO)NC(C)=O)C(=O)N[C@@H](CCCNC(=N)N)C(=O)N[C@@H](CC(=O)O)C(=O)N[C@@H](CC(C)C)C(=O)N[C@@H](CC(C)C)C(=O)N[C@@H](CC(=O)O)C(=O)N[C@H](C(=O)N[C@@H](C)C(=O)N[C@@H](CO)C(=O)N[C@@H](C)C(=O)N[C@@H](CC(C)C)C(=O)N[C@@H](Cc1ccc(O)cc1)C(=O)N[C@@H](CCCNC(=N)N)C(=O)N[C@@H](CCC(=O)O)C(N)=O)[C@@H](C)O`, the inhibition result is “inactive”. For the compound `CC[C@H](C)[C@H](NC(=O)[C@H](Cc1c[nH]c2ccccc12)NC(=O)[C@@H](NC(=O)CNC(=O)[C@H](Cc1ccccc1)NC(=O)[C@@H](N)CO)C(C)C)C(=O)N[C@@H](CCCNC(=N)N)C(=O)N[C@H](C(=O)N1CCC[C@H]1C(=O)N1CCC[C@H]1C(=O)N[C@@H](C)C(=O)N[C@@H](Cc1ccc(O)cc1)C(=O)N[C@@H](CCCNC(=N)N)C(=O)N1CCC[C@H]1C(=O)N1CCC[C@H]1C(N)=O)[C@@H](C)O`, the inhibition result is “inactive”. In the case of `CC[C@H](C)[C@H](NC(=O)[C@H](Cc1c[nH]cn1)NC(=O)[C@H](Cc1ccccc1)NC(=O)[C@H](Cc1c[nH]c2ccccc12)NC(=O)[C@H](CC(C)C)NC(=O)[C@H](CC(C)C)NC(=O)[C@H](CCC(N)=O)NC(=O)[C@H](CCCNC(=N)N)NC(=O)[C@H](Cc1ccccc1)NC(=O)[C@H](CCCCN)NC(=O)[C@H](CC(C)C)NC(=O)CNC(=O)[C@H](CCSC)NC(=O)[C@H](CC(N)=O)NC(=O)[C@@H](N)C(C)C)C(N)=O` it was “inactive”; in that of `CSCC[C@H](N)C(=O)N[C@@H](CC(N)=O)C(=O)N[C@@H](CC(C)C)C(=O)N[C@@H](C)C(=O)N[C@H](C(=O)N[C@@H](Cc1c[nH]c2ccccc12)C(=O)N[C@H](C(=O)NCC(=O)N[C@@H](CO)C(=O)N[C@@H](CC(N)=O)C(=O)N[C@@H](CC(C)C)C(=O)N[C@@H](CCC(=O)O)C(=O)N[C@@H](CC(=O)O)C(=O)N1CCC[C@H]1C(=O)N[C@@H](C)C(N)=O)C(C)C)[C@@H](C)O`, “inactive”; in that of `CSCC[C@H](NC(=O)[C@H](CC(N)=O)NC(=O)[C@@H](NC(=O)[C@H](CC(N)=O)NC(=O)[C@@H](NC(=O)[C@H](Cc1ccc(O)cc1)NC(=O)[C@H](CO)NC(=O)[C@@H](NC(=O)[C@@H](NC(=O)[C@H](CC(C)C)NC(=O)[C@H](CCC(=O)O)NC(=O)[C@H](CCCNC(=N)N)NC(=O)[C@@H](N)CO)C(C)C)C(C)C)C(C)C)C(C)C)C(=O)NCC(=O)N[C@@H](CC(C)C)C(N)=O`, “inactive”.
